Laboratory results: ChEMBL document CHEMBL3885881, “DrugMatrix”

Species on record: Rattus norvegicus
Assay: DrugMatrix - Regimen: Daily Repeat
Format: toxicity, organism-based, Sprague-Dawley
Set-up: regimen Daily Repeat, gender Male, age 6-8 weeks
Details: in vivo, po, route oral GAVAGE, vehicle .5 % CMC; for ABSOLUTE BASOPHIL / ABSOLUTE EOSINOPHIL / ABSOLUTE LYMPHOCYTE / ABSOLUTE MONOCYTE / ABSOLUTE SEGMENTED NEUTROPHIL / BASOPHIL / EOSINOPHIL / ERYTHROCYTE COUNT / HEMATOCRIT / HEMOGLOBIN / LEUKOCYTE COUNT / LYMPHOCYTE / MEAN CORPUSCULAR HEMOGLOBIN / MEAN CORPUSCULAR HEMOGLOBIN CONCENTRATION / MEAN CORPUSCULAR VOLUME / MONOCYTE / NEUTROPHIL / NUCLEATED RED BLOOD CELLS / PLATELET COUNT: tissue Blood; for ALANINE AMINOTRANSFERASE / ALBUMIN / ALKALINE PHOSPHATASE / ASPARTATE AMINOTRANSFERASE / BLOOD UREA NITROGEN / CARBON DIOXIDE / CHLORIDE / CHOLESTEROL / CREATINE PHOSPHOKINASE / CREATININE / GLUCOSE / LACTATE DEHYDROGENASE / LIPASE / PHOSPHORUS / POTASSIUM / SODIUM / TOTAL BILIRUBIN / TOTAL PROTEIN / URIC ACID: tissue Plasma
[1] = 5 mg/kg, 72 h, dose level Low, time 3 day
[2] = 5 mg/kg, 120 h, dose level Low, time 5 day
[3] = 26 mg/kg, 72 h, dose level High, time 3 day
[4] = 26 mg/kg, 120 h, dose level High, time 5 day

With `Nc1nnc(-c2cccc(Cl)c2Cl)c(N)n1` [LAMOTRIGINE] the “ABSOLUTE BASOPHIL” value [1] was 0 CELLS/uL, the “ABSOLUTE EOSINOPHIL” value [1] was 0 CELLS/uL and the “ABSOLUTE LYMPHOCYTE” value [1] was 10899.33 CELLS/uL. The “ABSOLUTE MONOCYTE” value [1] was 45.33 CELLS/uL, the “ABSOLUTE SEGMENTED NEUTROPHIL” value [1] was 922 CELLS/uL and the BASOPHIL [1] was 0%. The EOSINOPHIL [1] was 0%, the “ERYTHROCYTE COUNT” value [1] was 5.73 x10E6/uL and the HEMATOCRIT [1] was 35.93%. For the same compound, the HEMOGLOBIN [1] was 13.53 G/DL, the “LEUKOCYTE COUNT” value [1] was 11.87 x10E3/uL and the LYMPHOCYTE [1] was 91.67%. For the same compound, the “MEAN CORPUSCULAR HEMOGLOBIN” value [1] was 23.7 pg, the “MEAN CORPUSCULAR HEMOGLOBIN CONCENTRATION” value [1] was 37.7 G/DL and the “MEAN CORPUSCULAR VOLUME” value [1] was 62.83 fL. The MONOCYTE [1] was 0.33%, the NEUTROPHIL [1] was 8% and the “NUCLEATED RED BLOOD CELLS” value [1] was 0.33 /100WBC. For the same compound, the “PLATELET COUNT” value [1] was 1386.33 x10E3/uL, the “ALANINE AMINOTRANSFERASE” value [1] was 59 u/L and the ALBUMIN [1] was 4.23 G/DL. The “ALKALINE PHOSPHATASE” value [1] was 377.33 u/L, the “ASPARTATE AMINOTRANSFERASE” value [1] was 90.67 u/L and the “BLOOD UREA NITROGEN” value [1] was 15 mg/dL. The “CARBON DIOXIDE” value [1] was 25.67 mmol/L, the CHLORIDE [1] was 103.33 MEQ/L and the CHOLESTEROL [1] was 73.33 mg/dL. For the same compound, the “CREATINE PHOSPHOKINASE” value [1] was 322.33 u/L, the CREATININE [1] was 0.43 mg/dL and the GLUCOSE [1] was 152 mg/dL. The “LACTATE DEHYDROGENASE” value [1] was 339.67 u/L, the LIPASE [1] was 10.33 u/L and the PHOSPHORUS [1] was 13.67 mg/dL. For the same compound, the POTASSIUM [1] was 6.72 MEQ/L, the SODIUM [1] was 145.9 MEQ/L and the “TOTAL BILIRUBIN” value [1] was 0.2 mg/dL. The “TOTAL PROTEIN” value [1] was 5.77 G/DL, the “URIC ACID” value [1] was 1.6 mg/dL and the “ABSOLUTE BASOPHIL” value [2] was 0 CELLS/uL. The “ABSOLUTE EOSINOPHIL” value [2] was 56.33 CELLS/uL, the “ABSOLUTE LYMPHOCYTE” value [2] was 12053 CELLS/uL and the “ABSOLUTE MONOCYTE” value [2] was 415 CELLS/uL. The “ABSOLUTE SEGMENTED NEUTROPHIL” value [2] was 1309 CELLS/uL, the BASOPHIL [2] was 0% and the EOSINOPHIL [2] was 0.33%. The “ERYTHROCYTE COUNT” value [2] was 5.33 x10E6/uL, the HEMATOCRIT [2] was 35.73% and the HEMOGLOBIN [2] was 13.3 G/DL. For the same compound, the “LEUKOCYTE COUNT” value [2] was 13.83 x10E3/uL, the LYMPHOCYTE [2] was 87% and the “MEAN CORPUSCULAR HEMOGLOBIN” value [2] was 25 pg. For the same compound, the “MEAN CORPUSCULAR HEMOGLOBIN CONCENTRATION” value [2] was 37.23 G/DL, the “MEAN CORPUSCULAR VOLUME” value [2] was 67.17 fL and the MONOCYTE [2] was 3%. For the same compound, the NEUTROPHIL [2] was 9.67%, the “NUCLEATED RED BLOOD CELLS” value [2] was 0 /100WBC and the “PLATELET COUNT” value [2] was 1207 x10E3/uL. For the same compound, the “ALANINE AMINOTRANSFERASE” value [2] was 54.33 u/L, the ALBUMIN [2] was 4.4 G/DL and the “ALKALINE PHOSPHATASE” value [2] was 422.67 u/L. For the same compound, the “ASPARTATE AMINOTRANSFERASE” value [2] was 86.33 u/L, the “BLOOD UREA NITROGEN” value [2] was 16.67 mg/dL and the “CARBON DIOXIDE” value [2] was 23 mmol/L. For the same compound, the CHLORIDE [2] was 104 MEQ/L, the CHOLESTEROL [2] was 71.67 mg/dL and the “CREATINE PHOSPHOKINASE” value [2] was 218.33 u/L. For the same compound, the CREATININE [2] was 0.41 mg/dL, the GLUCOSE [2] was 152.67 mg/dL and the “LACTATE DEHYDROGENASE” value [2] was 99.67 u/L. For the same compound, the LIPASE [2] was 10.33 u/L, the PHOSPHORUS [2] was 12.27 mg/dL and the POTASSIUM [2] was 6.44 MEQ/L. For the same compound, the SODIUM [2] was 149.03 MEQ/L, the “TOTAL BILIRUBIN” value [2] was 0.17 mg/dL and the “TOTAL PROTEIN” value [2] was 6.17 G/DL. For the same compound, the “URIC ACID” value [2] was 1.8 mg/dL, the “ABSOLUTE BASOPHIL” value [3] was 0 CELLS/uL and the “ABSOLUTE EOSINOPHIL” value [3] was 0 CELLS/uL. The “ABSOLUTE LYMPHOCYTE” value [3] was 13769 CELLS/uL, the “ABSOLUTE MONOCYTE” value [3] was 39.33 CELLS/uL and the “ABSOLUTE SEGMENTED NEUTROPHIL” value [3] was 558.33 CELLS/uL. For the same compound, the BASOPHIL [3] was 0%, the EOSINOPHIL [3] was 0% and the “ERYTHROCYTE COUNT” value [3] was 5.86 x10E6/uL. For the same compound, the HEMATOCRIT [3] was 39.23%, the HEMOGLOBIN [3] was 14.47 G/DL and the “LEUKOCYTE COUNT” value [3] was 14.37 x10E3/uL. The LYMPHOCYTE [3] was 95.67%, the “MEAN CORPUSCULAR HEMOGLOBIN” value [3] was 24.67 pg and the “MEAN CORPUSCULAR HEMOGLOBIN CONCENTRATION” value [3] was 36.9 G/DL. The “MEAN CORPUSCULAR VOLUME” value [3] was 66.93 fL, the MONOCYTE [3] was 0.33% and the NEUTROPHIL [3] was 4%. The “NUCLEATED RED BLOOD CELLS” value [3] was 0.33 /100WBC, the “PLATELET COUNT” value [3] was 1200 x10E3/uL and the “ALANINE AMINOTRANSFERASE” value [3] was 73 u/L. The ALBUMIN [3] was 4.6 G/DL, the “ALKALINE PHOSPHATASE” value [3] was 355.33 u/L and the “ASPARTATE AMINOTRANSFERASE” value [3] was 139.67 u/L. For the same compound, the “BLOOD UREA NITROGEN” value [3] was 13 mg/dL, the “CARBON DIOXIDE” value [3] was 24.67 mmol/L and the CHLORIDE [3] was 102 MEQ/L. The CHOLESTEROL [3] was 91 mg/dL, the “CREATINE PHOSPHOKINASE” value [3] was 1448.33 u/L and the CREATININE [3] was 0.29 mg/dL. For the same compound, the GLUCOSE [3] was 138 mg/dL, the “LACTATE DEHYDROGENASE” value [3] was 373.67 u/L and the LIPASE [3] was 10.33 u/L. The PHOSPHORUS [3] was 13.67 mg/dL, the POTASSIUM [3] was 7.33 MEQ/L and the SODIUM [3] was 146.47 MEQ/L. The “TOTAL BILIRUBIN” value [3] was 0.2 mg/dL, the “TOTAL PROTEIN” value [3] was 6.5 G/DL and the “URIC ACID” value [3] was 3 mg/dL. The “ABSOLUTE BASOPHIL” value [4] was 0 CELLS/uL, the “ABSOLUTE EOSINOPHIL” value [4] was 0 CELLS/uL and the “ABSOLUTE LYMPHOCYTE” value [4] was 13660 CELLS/uL. For the same compound, the “ABSOLUTE MONOCYTE” value [4] was 181.67 CELLS/uL, the “ABSOLUTE SEGMENTED NEUTROPHIL” value [4] was 558.33 CELLS/uL and the BASOPHIL [4] was 0%. The EOSINOPHIL [4] was 0%, the “ERYTHROCYTE COUNT” value [4] was 5.81 x10E6/uL and the HEMATOCRIT [4] was 37.13%. The HEMOGLOBIN [4] was 14.03 G/DL, the “LEUKOCYTE COUNT” value [4] was 14.4 x10E3/uL and the LYMPHOCYTE [4] was 95%. The “MEAN CORPUSCULAR HEMOGLOBIN” value [4] was 24.17 pg, the “MEAN CORPUSCULAR HEMOGLOBIN CONCENTRATION” value [4] was 37.8 G/DL and the “MEAN CORPUSCULAR VOLUME” value [4] was 63.93 fL. For the same compound, the MONOCYTE [4] was 1.33%, the NEUTROPHIL [4] was 3.67% and the “NUCLEATED RED BLOOD CELLS” value [4] was 0.33 /100WBC. For the same compound, the “PLATELET COUNT” value [4] was 1279.33 x10E3/uL, the “ALANINE AMINOTRANSFERASE” value [4] was 64.67 u/L and the ALBUMIN [4] was 4.4 G/DL. The “ALKALINE PHOSPHATASE” value [4] was 331.33 u/L, the “ASPARTATE AMINOTRANSFERASE” value [4] was 78 u/L and the “BLOOD UREA NITROGEN” value [4] was 18.67 mg/dL. For the same compound, the “CARBON DIOXIDE” value [4] was 27.67 mmol/L, the CHLORIDE [4] was 103 MEQ/L and the CHOLESTEROL [4] was 75.67 mg/dL. The “CREATINE PHOSPHOKINASE” value [4] was 225 u/L, the CREATININE [4] was 0.28 mg/dL and the GLUCOSE [4] was 163 mg/dL. The “LACTATE DEHYDROGENASE” value [4] was 110.33 u/L, the LIPASE [4] was 10.67 u/L and the PHOSPHORUS [4] was 12.43 mg/dL. The POTASSIUM [4] was 7.41 MEQ/L, the SODIUM [4] was 147.97 MEQ/L and the “TOTAL BILIRUBIN” value [4] was 0.2 mg/dL. For the same compound, the “TOTAL PROTEIN” value [4] was 6.2 G/DL and the “URIC ACID” value [4] was 2.03 mg/dL.
